One may read the IC50 as the concentration that inhibits the measured activity by half. A higher IC50 goes with weaker potency in that assay.

In patent publication US11787762B2, “Tetralin and tetrahydroquinoline compounds as inhibitors of HIF-2alpha” (ARCUS BIOSCIENCES, INC., priority 2020, dated 2023) one finds IC50 data, which are given here for 18 molecules.

Assay [1] has as its target T1, Histidine tagged HIF-2α protein containing PAS-B domain (240-350) (Homo sapiens, UniProt Q99814).
T1 construct: HIF-2α protein containing PAS-B domain (240-350); made in house
The assay can be described thus: HIF-2α Scintillation Proximity Assay (SPA) binding assay. The note with it: 50 nM HIF-2α protein, 25 nM 3H-tracer. Put shortly: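 His-tagged HIF-2α PAS-B (240-350), 50 nM final, preincubated with compound 1 h at room temperature in 25 mM Tris-HCl pH 7.4, 150 mM NaCl, 0.15% BSA, 0.001% Tween 20, 2% DMSO. Copper-chelate SPA beads (3 ug/well, 45 min) and 25 nM tritiated N-(3-chlorophenyl)-4-nitro-2,1,3-benzoxadiazol-5-amine tracer followed; IC50 from four-parameter fits.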
(In general: Scintillation proximity formats need no separation of bound from free tracer.)

Assay [2] deals with T2, HIF-2α (Homo sapiens, UniProt Q99814).
T2 construct: host or cells: 786-O cells stably transduced with Cignal Lenti HIF Luc Reporter (only the reporter was introduced, not HIF-2α)
T2 sequence (Q99814 whole entry): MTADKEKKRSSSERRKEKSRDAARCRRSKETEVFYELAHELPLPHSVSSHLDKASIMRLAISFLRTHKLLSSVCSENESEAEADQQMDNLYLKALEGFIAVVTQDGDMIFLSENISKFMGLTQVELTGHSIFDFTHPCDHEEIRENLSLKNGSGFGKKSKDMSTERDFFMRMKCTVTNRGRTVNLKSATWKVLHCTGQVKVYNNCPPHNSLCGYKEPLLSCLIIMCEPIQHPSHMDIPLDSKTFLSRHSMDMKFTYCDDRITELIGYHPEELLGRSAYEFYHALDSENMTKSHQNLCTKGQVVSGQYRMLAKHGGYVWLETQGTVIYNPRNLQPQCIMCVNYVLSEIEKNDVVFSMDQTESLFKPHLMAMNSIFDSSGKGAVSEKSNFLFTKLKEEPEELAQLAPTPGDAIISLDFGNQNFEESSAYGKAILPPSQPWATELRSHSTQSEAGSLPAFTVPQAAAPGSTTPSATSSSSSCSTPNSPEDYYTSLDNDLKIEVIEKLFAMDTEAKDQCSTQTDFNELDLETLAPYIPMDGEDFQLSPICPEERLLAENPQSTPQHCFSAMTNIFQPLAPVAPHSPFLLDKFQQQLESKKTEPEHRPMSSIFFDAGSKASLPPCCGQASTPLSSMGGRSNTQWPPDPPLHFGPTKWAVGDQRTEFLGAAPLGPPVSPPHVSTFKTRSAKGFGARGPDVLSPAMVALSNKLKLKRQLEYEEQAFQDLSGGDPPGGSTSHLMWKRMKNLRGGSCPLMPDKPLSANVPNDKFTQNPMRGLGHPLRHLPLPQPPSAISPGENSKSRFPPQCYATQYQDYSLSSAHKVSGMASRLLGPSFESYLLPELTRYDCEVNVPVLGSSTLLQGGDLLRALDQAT
The assay can be described thus: HIF-2α luciferase reporter assay in HIF-Luc-786-O cells. In kind it is cell-based. Put shortly: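 Luminescence (ONE-Glo) read after 20 h compound incubation, top concentration 50 uM, 1% DMSO, 20,000 HIF-Luc-786-O cells per well. Activity scaled between DMSO maximum and no-cell baseline; four-parameter dose-response fits yielded IC50.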
A general note: In a reporter assay the amount or activity of a reporter protein is the signal.

Each structure is given as a SMILES string.

T1 sequence (Q99814 240-350): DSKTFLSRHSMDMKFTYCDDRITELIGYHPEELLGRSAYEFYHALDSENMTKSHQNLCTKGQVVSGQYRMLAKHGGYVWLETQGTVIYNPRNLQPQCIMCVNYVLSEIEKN

As for `Cn1nccc1-c1ccc([C@H]2CC[C@H](F)c3cc(F)cc(C#N)c32)c2c1[C@H](O)C(F)(F)C2` [Example 143, (5S,8R)-8-[(1S)-2,2-difluoro-1-hydroxy-7-(2-methylpyrazol-3-yl)-1,3-dihydroinden-4-yl]-3,5-difluoro-5,6,7,8-tetrahydronaphthalene-1-carbonitrile], the IC50 in assay [1] (Table 2) was below 100 nM; in assay [2] (Table 2, 20 hours incubation) it was below 100 nM.
Turning to `Cn1ncc(C#N)c1-c1ccc([C@H]2CC[C@H](F)c3cc(F)cc(C#N)c32)c2c1[C@H](O)C(F)(F)C2` [Example 145, 5-[(3S)-7-[(1R,4S)-8-cyano-4,6-difluoro-1,2,3,4-tetrahydronaphthalen-1-yl]-2,2-difluoro-3-hydroxy-1,3-dihydroinden-4-yl]-1-methylpyrazole-4-carbonitrile], the IC50 in assay [1] (Table 3) is below 100 nM; in assay [2] (Table 3, 20 hours incubation) it was below 100 nM.
In the case of `Cn1nncc1-c1ccc([C@H]2CC[C@H](F)c3cc(F)cc(C#N)c32)c2c1[C@H](O)C(F)(F)C2` [Example 147, (5S,8R)-8-[(1S)-2,2-difluoro-1-hydroxy-7-(3-methyltriazol-4-yl)-1,3-dihydroinden-4-yl]-3,5-difluoro-5,6,7,8-tetrahydronaphthalene-1-carbonitrile], the IC50 is below 100 nM in assay [1] (Table 3) and below 100 nM in assay [2] (Table 3, 20 hours incubation).
As for `Cc1cnn(C)c1-c1ccc([C@H]2CC[C@H](F)c3cc(F)cc(C#N)c32)c2c1[C@H](O)[C@H](F)C2` [Example 152], the IC50 is below 100 nM in assay [1] (Table 3) and below 100 nM in assay [2] (Table 3, 20 hours incubation).
Regarding `N#Cc1cc(F)cc2c1[C@@H](c1ccc(-c3cccnc3N)c3c1CC(F)(F)[C@H]3O)CC[C@@H]2F` [Example 153, (5S,8R)-8-[(1S)-7-(2-aminopyridin-3-yl)-2,2-difluoro-1-hydroxy-1,3-dihydroinden-4-yl]-3,5-difluoro-5,6,7,8-tetrahydronaphthalene-1-carbonitrile], the IC50 in assay [1] (Table 3) was below 100 nM; in assay [2] (Table 3, 20 hours incubation), below 100 nM.
As for `Cc1cn[nH]c1-c1ccc([C@H]2CC[C@H](F)c3cc(F)cc(C#N)c32)c2c1[C@H](O)C(F)(F)C2` [Example 154, (5S,8R)-8-[(1S)-2,2-difluoro-1-hydroxy-7-(4-methyl-1H-pyrazol-5-yl)-1,3-dihydroinden-4-yl]-3,5-difluoro-5,6,7,8-tetrahydronaphthalene-1-carbonitrile], the 50% inhibitory concentration (IC50) in assay [1] (Table 3) is below 100 nM; in assay [2] (Table 3, 20 hours incubation) it was below 100 nM.
`Cn1nccc1-c1ccc([C@H]2CC[C@H](F)c3cc(F)cc(C#N)c32)c2c1[C@H](O)[C@H](F)C2` [Example 157, (5S,8R)-3,5-difluoro-8-[(1S,2R)-2-fluoro-1-hydroxy-7-(2-methylpyrazol-3-yl)-2,3-dihydro-1H-inden-4-yl]-5,6,7,8-tetrahydronaphthalene-1-carbonitrile]: the IC50 is below 100 nM in assay [1] (Table 3) and below 100 nM in assay [2] (Table 3, 20 hours incubation).
For `Cc1ncccc1-c1ccc([C@H]2CC[C@H](F)c3cc(F)cc(C#N)c32)c2c1[C@H](O)C(F)(F)C2` [Example 159, (5S,8R)-8-[(1S)-2,2-difluoro-1-hydroxy-7-(2-methylpyridin-3-yl)-1,3-dihydroinden-4-yl]-3,5-difluoro-5,6,7,8-tetrahydronaphthalene-1-carbonitrile], the IC50 in assay [1] (Table 3) is below 100 nM; in assay [2] (Table 3, 20 hours incubation), below 100 nM.
Consider `N#Cc1ccccc1-c1ccc([C@H]2CC[C@H](F)c3cc(F)cc(C#N)c32)c2c1[C@H](O)C(F)(F)C2` [Example 162, (5S,8R)-8-[(1S)-7-(2-cyanophenyl)-2,2-difluoro-1-hydroxy-1,3-dihydroinden-4-yl]-3,5-difluoro-5,6,7,8-tetrahydronaphthalene-1-carbonitrile], for which the IC50 in assay [1] (Table 3) is below 100 nM; in assay [2] (Table 3, 20 hours incubation), below 100 nM.
Take `Cc1c(-c2ccc([C@H]3CC[C@H](F)c4cc(F)cc(C#N)c43)c3c2[C@H](O)C(F)(F)C3)cnn1C` [Example 166, (5S,8R)-8-[(1S)-7-(1,5-dimethyl-1H-pyrazol-4-yl)-2,2-difluoro-1-hydroxy-2,3-dihydro-1H-inden-4-yl]-3,5-difluoro-5,6,7,8-tetrahydronaphthalene-1-carbonitrile]: the IC50 in assay [1] (Table 3) is below 100 nM; in assay [2] (Table 3, 20 hours incubation), below 100 nM.
Turning to `Cc1ncsc1-c1ccc([C@H]2CC[C@H](F)c3cc(F)cc(C#N)c32)c2c1[C@H](O)C(F)(F)C2` [Example 167, (5S,8R)-8-[(1S)-2,2-difluoro-1-hydroxy-7-(4-methyl-1,3-thiazol-5-yl)-2,3-dihydro-1H-inden-4-yl]-3,5-difluoro-5,6,7,8-tetrahydronaphthalene-1-carbonitrile], the IC50 in assay [1] (Table 3) is below 100 nM; in assay [2] (Table 3, 20 hours incubation), below 100 nM.
With `N#Cc1cc(F)cc2c1[C@@H](c1ccc(-c3cccnc3CF)c3c1CC(F)(F)[C@H]3O)CC[C@@H]2F` [Example 173], the IC50 is below 100 nM in assay [1] (Table 3) and below 100 nM in assay [2] (Table 3, 20 hours incubation).
Turning to `Cn1ncnc1-c1ccc([C@H]2CC[C@H](F)c3cc(F)cc(C#N)c32)c2c1[C@H](O)C(F)(F)C2` [Example 174, (5S,8R)-8-[(1S)-2,2-difluoro-1-hydroxy-7-(2-methyl-1,2,4-triazol-3-yl)-1,3-dihydroinden-4-yl]-3,5-difluoro-5,6,7,8-tetrahydronaphthalene-1-carbonitrile], the IC50 in assay [1] (Table 3) was below 100 nM; in assay [2] (Table 3, 20 hours incubation) it was below 100 nM.
Turning to `CS(=O)(=O)c1c(Cl)cc([C@H]2CC[C@H](F)c3cc(F)cc(C#N)c32)c2c1[C@H](O)[C@H](F)C2` [Example 213, (5S,8R)-8-[(1S,2R)-6-Chloro-2-fluoro-1-hydroxy-7-methylsulfonyl-2,3-dihydro-1H-inden-4-yl]-3,5-difluoro-5,6,7,8-tetrahydronaphthalene-1-carbonitrile], the IC50 was below 100 nM in assay [1] (Table 3) and below 100 nM in assay [2] (Table 3, 20 hours incubation).
Regarding `CS(=O)(=O)c1ccc([C@H]2C[C@H](F)[C@H](F)c3cc(F)cc(C#N)c32)c2c1[C@H](O)[C@H](F)C2` [Example 215, (5R,6S,8R)-3,5,6-trifluoro-8-[(1S,2R)-2-fluoro-1-hydroxy-7-methanesulfonyl-2,3-dihydro-1H-inden-4-yl]-5,6,7,8-tetrahydronaphthalene-1-carbonitrile], the concentration for half-maximal inhibition (IC50) in assay [1] (Table 3) is below 100 nM; in assay [2] (Table 3, 20 hours incubation) it was below 100 nM.
With `Cn1cncc1-c1ccc([C@H]2CC[C@H](F)c3cc(F)cc(C#N)c32)c2c1[C@H](O)C(F)(F)C2` [Example 240, (5S,8R)-8-[(1S)-2,2-difluoro-1-hydroxy-7-(3-methylimidazol-4-yl)-1,3-dihydroinden-4-yl]-3,5-difluoro-5,6,7,8-tetrahydronaphthalene-1-carbonitrile], the IC50 in assay [1] (Table 3) is below 100 nM; in assay [2] (Table 3, 20 hours incubation), below 100 nM.
For `Cc1ccncc1-c1ccc([C@H]2CC[C@H](F)c3cc(F)cc(C#N)c32)c2c1[C@H](O)C(F)(F)C2` [Example 241, (5S,8R)-8-[(1S)-2,2-difluoro-1-hydroxy-7-(4-methylpyridin-3-yl)-2,3-dihydro-1H-inden-4-yl]-3,5-difluoro-5,6,7,8-tetrahydronaphthalene-1-carbonitrile], the IC50 in assay [1] (Table 3) is below 100 nM; in assay [2] (Table 3, 20 hours incubation), below 100 nM.
As to `Cc1cnccc1-c1ccc([C@H]2CC[C@H](F)c3cc(F)cc(C#N)c32)c2c1[C@H](O)C(F)(F)C2` [Example 242, (5S,8R)-8-[(1S)-2,2-difluoro-1-hydroxy-7-(3-methylpyridin-4-yl)-2,3-dihydro-1H-inden-4-yl]-3,5-difluoro-5,6,7,8-tetrahydronaphthalene-1-carbonitrile], the IC50 was below 100 nM in assay [1] (Table 3) and below 100 nM in assay [2] (Table 3, 20 hours incubation).
